Test results taken from ChEMBL document CHEMBL1201862, “PubChem BioAssay data set” (2004).
Active and inactive are the calls of the source.

Experiments:
Large T antigen = Large T antigen (Simian virus 40, UniProt P03070); type: functional, Betapolyomavirus macacae;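 also: Confirmatory-stage PubChem screen for compounds that inhibit SV40 T antigen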
Protein Tat = Protein Tat (Human immunodeficiency virus type 1 group M subtype B (isolate HXB2)(HIV-1), UniProt P04608); type: functional;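 also: tat binding to TAR RNA read out by fluorescence polarization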
Chain of Protein Tat (P04608 whole entry): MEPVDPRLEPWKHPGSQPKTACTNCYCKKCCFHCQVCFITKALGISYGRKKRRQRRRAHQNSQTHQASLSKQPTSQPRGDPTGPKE

[1] = Late stage assay provider results from the probe development effort to identify inhibitors of the Plasmodium falciparum M17 Leucine Aminopeptidase (M17LAP): radiolabel-based cell-based dose response assay to identify compounds that inhibit P. falciparum growth in RBCs Set 2.; type: functional
Interleukin-8 = Interleukin-8 (Homo sapiens, UniProt P10145); assay: Dose Response confirmation of uHTS small molecule hits for cystic fibrosis induced NFkb Inhibitors in a PAF-induced IL8 counterscreen.; type: functional; conditions: read-out: IC50_Mean
Chain of Interleukin-8 (P10145 whole entry): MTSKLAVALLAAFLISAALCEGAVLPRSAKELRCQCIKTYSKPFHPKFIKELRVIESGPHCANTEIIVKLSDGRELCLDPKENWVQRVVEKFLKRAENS

HEK293 = assay: EBV LMP1 TES2 canonical NF-kB signalling blockers – cell-based, HEK293, luciferase, cherry-pick, dose response (AID 588343); type: functional; conditions: Homo sapiens
[2] = molecular target: T1, Probable nicotinate-nucleotide adenylyltransferase (Staphylococcus aureus (strain N315), UniProt P65502); type: functional, Staphylococcus aureus subsp. aureus N315;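 as to IC50 Mean: confirmatory dose-response retesting of NadD inhibitor hits first found in an ultra-high-throughput screen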
T1 sequence (P65502 whole entry): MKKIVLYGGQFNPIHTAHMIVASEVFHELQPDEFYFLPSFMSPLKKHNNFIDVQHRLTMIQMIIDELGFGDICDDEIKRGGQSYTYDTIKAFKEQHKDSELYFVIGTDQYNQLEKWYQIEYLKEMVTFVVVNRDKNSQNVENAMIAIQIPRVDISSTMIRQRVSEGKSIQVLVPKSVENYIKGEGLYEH

[3] = viability of PTEN-deleted HCT116 cells – cell-based, HCT116 PTEN knockout, dose response (AID 1047); type: functional;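 also: HCT116 colon tumor cells with PTEN knocked out; cells exposed to compound for 60 hours before readout; potency for loss of cell viability measured by luminescence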
[4] = viability of HCT116 lacking mutant beta-catenin – cell-based, human colon tumor, dose response (AID 1045); type: functional;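 also: HCT116 colon tumor cells with beta catenin knocked out; cells exposed to compound for 60 hours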
[5] = molecular target: T1, Probable nicotinate-nucleotide adenylyltransferase; type: functional, Staphylococcus aureus subsp. aureus N315; conditions: read-out: IC50_Mean
[6] = loss of viability in HepG2 cells – cell-based, CellTiter-Glo, cherry-picked, cytotoxicity control for Shn3 inhibitor project, dose response (AID 624134); type: functional
[7] = non-specific 3'UTR reporter inhibition in Clone20-Shn3RL – cell-based, Renilla luciferase, cherry-picked, counter-screen for Shn3 inhibitor project, dose response (AID 624133); type: functional
Galanin receptor type 3 = Galanin receptor type 3 (Homo sapiens, UniProt O60755); assay: Fluorescence-based cell-based primary high throughput dose response assay to identify antagonists of the Galanin Receptor 3 (GalR3).; type: functional
Chain of Galanin receptor type 3 (O60755 whole entry): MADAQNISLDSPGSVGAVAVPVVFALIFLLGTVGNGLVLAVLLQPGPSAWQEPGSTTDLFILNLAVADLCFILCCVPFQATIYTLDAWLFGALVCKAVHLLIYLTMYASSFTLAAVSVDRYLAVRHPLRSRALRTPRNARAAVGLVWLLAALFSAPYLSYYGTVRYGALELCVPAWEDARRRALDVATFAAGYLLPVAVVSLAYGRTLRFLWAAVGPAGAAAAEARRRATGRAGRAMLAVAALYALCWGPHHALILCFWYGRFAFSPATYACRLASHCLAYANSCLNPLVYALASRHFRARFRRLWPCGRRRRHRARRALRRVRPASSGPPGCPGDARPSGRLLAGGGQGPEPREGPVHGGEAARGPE

[8] = reduction of Shn3 3'UTR-driven luciferase in osteoblasts – cell-based, Clone20 osteoblasts, firefly luciferase, cherry-picked, dose response (AID 624132); type: functional;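 also: firefly luciferase luminescence from reporter carrying the Shn3 3'UTR in osteoblasts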
cells = type: functional, cell-based; conditions: HEK-CNG
[9] = blockers of HIV-1 envelope-mediated cell-cell fusion – cherry-pick, dose response (AID 652057); type: functional, cell-based
[10] = off-target signal loss in HeLa-CEM21 co-culture – HeLa F-luc CTL cells, cherry-picked, counter-screen for HIV-1 Env fusion inhibitor project, dose response (AID 652040); type: functional, cell-based;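 also: potency for signal decrease marking cytotoxic or nonspecific inhibition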
[11] = HIV-1 AD8 envelope cell-cell fusion blockers – cherry-pick, dose response (AID 652062); type: functional, cell-based;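 also: luciferase signal from cell-cell fusion driven by HIV-1 clade B AD8 Env; potency is for inhibitors of fusion seen as a drop in luminescence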
[12] = blockers of HIV-1 ZM109 envelope-driven cell-cell fusion – HeLa effector, CEM target cells, luciferase, cherry-pick, dose response (AID 652058); type: functional, cell-based;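 also: luciferase signal from HIV-1 Env mediated cell-cell fusion of effector and target cells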
[13] = molecular target: T2, Sentrin-specific protease 8 (Homo sapiens, UniProt Q96LD8); type: functional
T2 sequence (Q96LD8 whole entry): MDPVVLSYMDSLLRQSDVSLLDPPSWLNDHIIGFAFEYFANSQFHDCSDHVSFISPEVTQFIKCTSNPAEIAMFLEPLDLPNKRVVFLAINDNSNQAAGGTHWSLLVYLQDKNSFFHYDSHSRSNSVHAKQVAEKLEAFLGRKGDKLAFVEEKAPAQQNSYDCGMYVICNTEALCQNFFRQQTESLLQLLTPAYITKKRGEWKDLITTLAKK

[14] = molecular target: T2, Sentrin-specific protease 8; type: functional; remark: listed apart in the source
[15] = toxicity to human hepatoma HepG2 cells – cell-based, cherry-picked samples, cytotoxicity control, dose response (AID 1159577); type: functional
[16] = P. falciparum Dd2 growth inhibitors, dose response, SYBR Green, cherry-picked samples (AID 1159567); type: functional, cell-based
[17] = HGIII-sPLA2 enzyme inhibition potency – biochemical, QFRET, IC50, dose response (AID 743457);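 also: green fluorescence rise as the enzyme cleaves BODIPY PC-A2 in liposomes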
[18] = T. cruzi growth inhibition in host cells, dose response, cell-based, plate reader, dry powder, set 2 (AID 652275); type: functional

Chain of Large T antigen (P03070 whole entry): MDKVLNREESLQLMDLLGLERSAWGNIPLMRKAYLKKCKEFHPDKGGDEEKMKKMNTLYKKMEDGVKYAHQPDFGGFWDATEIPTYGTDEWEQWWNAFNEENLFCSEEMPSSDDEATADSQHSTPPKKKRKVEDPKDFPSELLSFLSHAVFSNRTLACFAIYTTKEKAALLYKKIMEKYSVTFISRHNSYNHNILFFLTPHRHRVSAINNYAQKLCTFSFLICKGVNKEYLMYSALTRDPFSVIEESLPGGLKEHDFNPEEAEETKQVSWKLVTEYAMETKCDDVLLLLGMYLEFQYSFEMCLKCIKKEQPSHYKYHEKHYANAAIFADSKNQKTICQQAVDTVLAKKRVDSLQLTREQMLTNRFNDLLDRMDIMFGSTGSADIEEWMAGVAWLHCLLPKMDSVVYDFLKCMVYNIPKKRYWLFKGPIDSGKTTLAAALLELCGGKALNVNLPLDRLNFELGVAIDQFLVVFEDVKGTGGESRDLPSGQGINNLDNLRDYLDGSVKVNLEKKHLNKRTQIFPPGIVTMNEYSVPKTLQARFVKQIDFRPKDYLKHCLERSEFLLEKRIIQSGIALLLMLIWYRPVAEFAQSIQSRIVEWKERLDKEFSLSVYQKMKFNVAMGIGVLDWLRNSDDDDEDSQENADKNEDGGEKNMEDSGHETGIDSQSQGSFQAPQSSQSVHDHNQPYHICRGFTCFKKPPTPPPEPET

## O=C(CN1CCN(S(=O)(=O)c2ccc(F)cc2)CC1)c1ccc(O)c(O)c1
Large T antigen
  IC50: 6.55 µM (active)
Protein Tat
  IC50: > 100 µM (active)

## CCCCOc1ccc(CNc2c(N(C)O)c(=O)c2=O)cc1
[1]
  IC50: 19 µM (inactive)

## CC(=O)c1c(C)n(C2CCCCC2)c2ccc(O)cc12
Interleukin-8
  IC50: > 79 µM (inactive)
HEK293
  AC50: 3.23 µM (active)

## O=C(NC(=S)Nc1cc(-c2nc3ccccc3[nH]2)ccc1Cl)c1ccc2c(c1)OCO2
[2]
  IC50: 21.1 µM (active)
[3]
  EC50: 1.53 µM (active)
[4]
  EC50: 2.23 µM (active)
[5]
  IC50: 58.9 µM (active)

## COc1ccc(-c2coc3c(C(=O)NCc4ccc(OC)c(OC)c4)cccc23)c(C)c1
[6]
  AC50: 1.77 µM (active)
[7]
  AC50: 1.4 µM (active)
Galanin receptor type 3
  IC50: 0.358 µM (active)
[8]
  AC50: 0.722 µM (active)
cells
  EC50: > 29.9 µM (inactive)

## COc1ccc(C2=Nn3c(nnc3-c3ccncc3)SC2)cc1
[9]
  AC50: 2.02 µM (active)
Interleukin-8
  IC50: 40.8 µM (inactive)
[10]
  AC50: 2.34 µM (active)
[11]
  AC50: 1.03 µM (active)
[12]
  AC50: 1.13 µM (active)

## Cc1[nH]n(-c2ccccc2)c(=O)c1S(=O)(=O)c1ccccc1
[13]
  IC50: 12.8 µM (active)
[14]
  IC50: 4.99 µM (active)

## C[C@@H]1CN([C@@H](C)CO)C(=O)c2cccc(NC(=O)Nc3cccc4ccccc34)c2O[C@@H]1CN(C)Cc1ccc(C(=O)Nc2ccccc2N)cc1
[15]
  AC50: 12.1 µM (active)
[16]
  AC50: < 0.3 µM (active)

## CCc1ccc(/C=C(/C#N)C(N)=S)cc1
[17]
  IC50: > 122 µM (inactive)

## C[C@H](CO)N1C[C@H](C)[C@H](CN(C)Cc2ccc(Oc3ccccc3)cc2)Oc2ccc(NC(=O)Nc3ccc(C(F)(F)F)cc3)cc2C1=O
[15]
  AC50: 7.87 µM (active)
[16]
  AC50: 9.62 µM (active)

## CC(C)N1C[C@H](C)[C@@H](CN(C)Cc2ccc(Cl)c(Cl)c2)Oc2c(cccc2-c2cn(-c3ccncc3)nn2)C1=O
[18]
  AC50: 0.00149 µM (active)
